Source: patent US20250312352A1, “GLP-1R MODULATING COMPOUNDS” (Gilead Sciences, Inc., priority 2021, published 2025)

Legend:
[1] = Pharmacokinetic (PK) studies, monkey oral PK; type: in vivo, Cynomolgus monkeys; conditions: for bioavailability / Tmax / AUC(0-t) / Cmax: plasma, Cynomolgus monkey; for bioavailability: oral dose 2 mg/kg (CE-1: 1 mg/kg); for Tmax / AUC(0-t) / Cmax: single oral dose 2 mg/kg (CE-1: 1 mg/kg); for AUC(0-t): read-out: AUC0-24 (Arbitrary units); for Cmax: read-out: Cmax (Arbitrary unit)
Description: Examples 54 and 253 were tested along with comparative examples CE-1 and CE-2.
Compounds CE-2, Example 54 or Example 253 were combined with a mixture of 10% NMP (v:v) and 90% PEG300 (v:v), and the mixture was stirred until a homogeneous solution was obtained (1 mg/mL final concentration of test article).
Compound CE-1 was combined with a mixture of 15% 2-hydroxypropyl-o-cyclodextrin (w:v) and 85% Mili-Q water (v:v), and the mixture was stirred until a homogeneous solution was obtained (0.5 mg/mL final concentration of test article).
Young adult non-naive Cynomolgus monkeys with weight about 2.5-5 kg (n=1-3/test article/route) were fasted overnight and then dosed with either CE-1 (at 1 mg test article per kg animal weight), CE-2 (at 2 mg test article per kg animal weight), Example 54 (at 2 mg test article per kg animal weight), or Example 253 (at 2 mg test article per kg animal weight). Food was supplied approximately 4 hours post dose and animals were provided with free access to water all the time. Animals were restrained at designated time points for blood sampling. Approximately 500 μL of blood samples was taken via cephalic or saphenous vein into EDTA-K2 tubes. For oral administration (PO): blood samples were generally collected pre-dose, and at 15 min, 30 min, 1 hr, 2 hr, 4 hr, 8 hr, 12 hr, and 24 hr time points after dosing. Blood was maintained on wet ice, in chilled cryoracks, or at approximately 5° C. prior to centrifugation to obtain plasma. Centrifugation was conducted within 1 hour of collection. Plasma (approximately 200 μL) was placed into a micronic tubes containing 4 μL of formic acid (the final concentration of formic acid in plasma was approximately 2%) and samples were vortex mixed. Samples were maintained on dry ice prior to storage at approximately −70° C.
LC-MS/MS assays were utilized to quantify the concentration of the test articles in plasma as follows.
50 μL plasma sample was mixed with 350 μL of ACN combined with an internal standard. The mixture was then vortexed for about 1-5 min, and centrifuged at about 4,000-5,800 rpm for about […]. An aliquot of 1 μL supernatant was used for LC-MS/MS analysis.
MS conditions: A Sciex API 6500 equipped with electrospray ionization in the positive ion selected reaction monitoring mode was used for detection.
HPLC conditions • Mobile Phase A: H2O-0.1% Formic Acid • Mobile Phase B: ACN-0.1% Formic Acid
• Column: Phenomenex Kinetex XBC18 (2.1×50 mm, 2.6 μm) with a flow rate of 1.20 mL/min • Column temperature: 60° C. • Retention time: approximately between 0.85 to 1.05 • min
Pharmacokinetics parameters, including area under the curve (AUC0-24), maximum plasma concentration (Cmax), time to reach maximum plasma concentration (Tma), oral bioavailability (F %), etc., were calculated using Dotmatics software in non-compartmental model.

[2] = molecular target: T1, GLP-1R (Homo sapiens, UniProt P43220); assay: GLP-1R activation cAMP assay (Assay 1 or Assay 2); type: cell-based; conditions: cAMP increase in CHO cells stably expressing GLP-1R; compounds run on one of the two cAMP assays
T1 construct: host or cells: CHO cells
Method in brief: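 EC50 values come from a sigmoidal fit of HTRF-detected cAMP rise versus log agonist concentration. GLP-1R-expressing CHO cells, equilibrated 1 h at 37 °C in HBSS with HEPES and BSA, received a 10-point compound dose series for 30 min before detection.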

T1 sequence (P43220 24-463): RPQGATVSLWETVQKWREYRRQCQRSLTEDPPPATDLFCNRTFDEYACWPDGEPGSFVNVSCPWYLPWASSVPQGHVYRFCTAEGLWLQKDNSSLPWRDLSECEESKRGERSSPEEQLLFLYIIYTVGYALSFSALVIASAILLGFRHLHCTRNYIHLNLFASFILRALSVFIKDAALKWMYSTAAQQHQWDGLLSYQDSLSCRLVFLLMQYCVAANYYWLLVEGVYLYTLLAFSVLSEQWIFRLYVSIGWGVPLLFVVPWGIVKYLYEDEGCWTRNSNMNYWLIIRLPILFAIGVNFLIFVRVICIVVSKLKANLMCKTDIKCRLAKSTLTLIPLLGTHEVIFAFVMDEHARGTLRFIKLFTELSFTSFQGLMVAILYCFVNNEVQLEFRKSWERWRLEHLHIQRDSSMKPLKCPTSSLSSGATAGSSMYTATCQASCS

Compound	bioavailability [1] [%]	EC50 [2] [nM]	other results
N#Cc1ccc(COc2cccc(C3CCN(Cc4nc5ccc(C(=O)O)cc5n4C[C@@H]4CCO4)CC3)n2)c(F)c1 [CE-1, (S)-2-((4-(6-((4-cyano-2-fluorobenzyl)oxy)pyridin-2-yl)piperidin-1-yl)methyl)-1-(oxetan-2-ylmethyl)-1H-benzo[d]imidazole-6-carboxylic acid, reference compound]			plasma exposures after the 12 h period ([1]; single oral dose of 1 mg/kg, monkey, FIG. 1): below the detection limit
N#Cc1ccc(COc2cccc(C3CCN(Cc4nc5ccc(C(=O)O)cc5n4C[C@@H]4CCO4)CC3)n2)c(F)c1 [Compound CE-1]	2.5 ± 0.2		
N#Cc1ccc(COc2cccc(-c3cc(F)c(Cc4nc5ccc(C(=O)O)cc5n4C[C@@H]4CCO4)cc3F)n2)c(F)c1 [Compound CE-2]	27.4 ± 12.9		
O=C(O)c1ccc2nc(Cc3cc(F)c(-c4cccc(OCc5ncc(C(F)(F)F)s5)n4)cc3F)n(C[C@@H]3CCO3)c2c1 [Example 54, (S)-2-(2,5-difluoro-4-(6-((5-(trifluoromethyl)thiazol-2-yl)methoxy)pyridin-2-yl)benzyl)-1-(oxetan-2-ylmethyl)-1H-benzo[d]imidazole-6-carboxylic acid]	89 ± 33	0.09	Tmax [1]: 4.7 ± 1.2 h; AUC(0-t) [1]: 14.2 ± 7.69 µM·h; Cmax [1]: 1270 ± 628 nM
O=C(O)c1cc(F)c2nc(Cc3cc(F)c(-c4cccc(OCc5ncc(C(F)(F)F)s5)n4)cc3F)n(C[C@@H]3CCO3)c2c1 [Example 253, (S)-2-(2,5-difluoro-4-(6-((5-(trifluoromethyl)thiazol-2-yl)methoxy)pyridin-2-yl)benzyl)-4-fluoro-1-(oxetan-2-ylmethyl)-1H-benzo[d]imidazole-6-carboxylic acid]	55.7 ± 20.6		Tmax [1]: 5.3 ± 2.3 h; AUC(0-t) [1]: 6.39 ± 2.36 µM·h; Cmax [1]: 582 ± 296 nM
CNC(=O)c1cc(Cl)c(COc2cccc(-c3cc(F)c(Cc4nc5ccc(C(=O)O)cc5n4CC4(CF)CC4)c(F)c3F)n2)cn1 [Example 450, 2-(4-(6-((4-chloro-6-(methylcarbamoyl)pyridin-3-yl)methoxy)pyridin-2-yl)-2,3,6-trifluorobenzyl)-1-((1-(fluoromethyl)cyclopropyl)methyl)-1H-benzo[d]imidazole-6-carboxylic acid]		0.05	
CNC(=O)c1cc(Cl)c(COc2cccc(-c3cc(F)c(Cc4nc5ccc(C(=O)O)cc5n4CC4(CF)CC4)c(F)c3F)c2)cn1 [Example 451, 2-((3′-((4-chloro-6-(methylcarbamoyl)pyridin-3-yl)methoxy)-2,3,5-trifluoro-[1,1′-biphenyl]-4-yl)methyl)-1-((1-(fluoromethyl)cyclopropyl)methyl)-1H-benzo[d]imidazole-6-carboxylic acid]		0.611	
(S)-1-(oxetan-2-ylmethyl)-2-(2,3,6-trifluoro-4-(6-((4-(trifluoromethyl)thiazol-2-yl)methoxy)pyridin-2-yl)benzyl)-1H-benzo[d]imidazole-6-carboxylic acid [Example 376]		0.153	
(S)-2-(4-(6-((5-cyano-3-fluorothiophen-2-yl)methoxy)-5-fluoropyridin-2-yl)-2,5-difluorobenzyl)-4-fluoro-1-(oxetan-2-ylmethyl)-1H-benzo[d]imidazole-6-carboxylic acid [Example 310]		0.038	
